biological target: T1, small-conductance Ca2+-activated K+ channels (SK channels, subtype 2) (Homo sapiens, UniProt Q9H2S1); assay: whole-cell patch-clamp of ionic current through SK2 channels in HEK293 cells (SC100); assay type: cell-based; details: whole-cell patch-clamp, HEK293 cells expressing SK2 channels; concentration that increases the basal current by 100%
T1 construct: expressed in transfected cells; host or cells: HEK293
Outline: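 SC100, the concentration doubling basal current (a 100% increase), was taken from SK2 currents recorded by whole-cell patch-clamp in SK2-expressing HEK293 cells.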

SMILES	SC100 (μM)	SC100
Cc1ccc(-c2nc(NC3CCC(F)(F)CC3)cc(N3CCOCC3)n2)n1C [IN10971-059-P1, N-(4,4-difluorocyclohexyl)-2-(1,5-dimethyl-1H-pyrrol-2-yl)-6-morpholino pyrimidin-4-amine]	+ (+ means >1 uM)	–
FC1(F)CCC(Nc2cc(N3CCOCC3)nc(-c3ccco3)n2)CC1 [IN10971-060-P1, N-(4,4-difluorocyclohexyl)-2-(furan-2-yl)-6-morpholinopyrimidin-4-amine]	+ (+ means >1 uM)	–
Cc1ccc(-c2nc(NC3CCC(F)(F)CC3)cc(N3CCOCC3)n2)o1 [IN10971-077-P1, N-(4,4-difluorocyclohexyl)-2-(5-methylfuran-2-yl)-6-morpholinopyrimidin-4-amine]	+ (+ means >1 uM)	–
Cc1cc(C)n(-c2nc(NC3CCC(F)(F)CC3)cc(N3CCOC(C#N)C3)n2)n1 (stereo not shown) [IN10971-081-P1, 4-(6-((4,4-difluorocyclohexyl)amino)-2-(3,5-dimethyl-1H-pyrazol-1-yl)pyrimidin-4-yl) morpholine-2-carbonitrile]	++ (++ means 200 nM-1000 nM)	–
Cc1ccc(-c2nc(NC3CCC(F)(F)CC3)cc(C(C)O)n2)o1 (stereo not shown) [IN10971-088-P1, 1-(6-((4,4-difluorocyclohexyl)amino)-2-(5-methylfuran-2-yl)pyrimidin-4-yl) ethan-1-ol]	+ (+ means >1 uM)	–
Cc1cc(C)n(-c2nc(C(C)O)cc(N(C)C3CCCCC3)n2)n1 (stereo not shown) [IN10973-004-P1]	+ (+ means >1 uM)	–
Cc1cc(C)n(-c2nc(NC3CCCC(C(F)(F)F)C3)cc(C(C)O)n2)n1 (stereo not shown) [IN10973-005-P1]	+ (+ means >1 uM)	–
Cc1cc(C)n(-c2nc(NC3CCCCC3)cc(C(C)O)n2)n1 (stereo not shown) [IN10973-008-P1]	+ (+ means >1 uM)	–
COC(=O)N1CCC(Oc2cc(NC3CCC(F)(F)CC3)nc(-c3nc(C)cs3)n2)C1 (stereo not shown) [IN10973-025-P1]	–	1 µM
Cc1csc(-c2nc(NC3CCC(F)(F)CC3)cc(C(C)N3CCOCC3)n2)n1 (stereo not shown) [IN10973-028-P1, N-(4,4-difluorocyclohexyl)-2-(4-methylthiazol-2-yl)-6-(1-morpholinoethyl)pyrimidin-4-amine]	+ (+ means >1 uM)	–
FC1(F)CCC(Nc2cc(N3CCOCC3)nc(-n3cccn3)n2)CC1 [IN10973-038-P1, N-(4,4-difluorocyclohexyl)-6-morpholino-2-(1H-pyrazol-1-yl)pyrimidin-4-amine]	+ (+ means >1 uM)	–
Cc1ccn(-c2nc(NC3CCC(F)(F)CC3)cc(S(C)(=O)=O)n2)n1 [IN10973-041-P1]	+ (+ means >1 uM)	–
Cc1csc(-c2nc(NC3CCC(F)(F)CC3)cc(C(C)S(C)(=O)=O)n2)n1 (stereo not shown) [IN10973-053-P1, N-(4,4-difluorocyclohexyl)-6-(1-(methylsulfonyl)ethyl)-2-(4-methylthiazol-2-yl)pyrimidin-4-amine]	+ (+ means >1 uM)	–
Cc1ccn(-c2nc(NC3CCC(F)(F)CC3)cc(C(C)S(C)(=O)=O)n2)n1 (stereo not shown) [IN10973-060-P1, N-(4,4-difluorocyclohexyl)-2-(3-methyl-1H-pyrazol-1-yl)-6-(1-(methylsulfonyl)ethyl)pyrimidin-4-amine]	+ (+ means >1 uM)	–
COC(C)c1cc(NC2CCC(F)(F)CC2)nc(-n2ccc(C)n2)n1 (stereo not shown) [IN10973-083-P1, N-(4,4-difluorocyclohexyl)-6-(1-methoxyethyl)-2-(3-methyl-1H-pyrazol-1-yl)pyrimidin-4-amine]	+ (+ means >1 uM)	–
Cc1ccn(-c2cc(NC3CCC(F)(F)CC3)cc(N3CCOCC3)n2)n1 [IN10973-098-P1, N-(4,4-difluorocyclohexyl)-2-(3-methyl-1H-pyrazol-1-yl)-6-morpholinopyridin-4-amine]	+ (+ means >1 uM)	–
Cc1csc(-c2nc(NC3(C)CCCCC3)cc(N3CCOCC3)n2)n1 [IN10973-099-P1]	+ (+ means >1 uM)	–

Next, values leading:

SC100 (μM)	SC100	SMILES
++ (++ means 200 nM-1000 nM)	–	Cc1cc(C)n(-c2nc(NC3CCC(F)(F)CC3)cc(N3CCOC(COC(F)F)C3)n2)n1 (stereo not shown) [IN10984-022-P1]
+ (+ means >1 uM)	–	Cc1ccn(-c2nc(NC3CCC(F)(F)CC3)cc(N(C)C3CCOC3)n2)n1 (stereo not shown) [IN10984-043-P1]
+ (+ means >1 uM)	–	Cc1ccn(-c2nc(NC3CCC(F)(F)CC3)nc(N3CCOCC3)n2)n1 [IN10984-079-P1, N-(4,4-difluorocyclohexyl)-4-(3-methyl-1H-pyrazol-1-yl)-6-morpholino-1,3,5-triazin-2-amine]
+ (+ means >1 uM)	–	Cc1cc(C)n(-c2nc(NC3CCC(F)(F)CC3)cc(C(O)c3ccccc3)n2)n1 (stereo not shown) [IN10987-030-P1]
+ (+ means >1 uM)	–	Cc1ccn(-c2nc(NC3CCC(F)(F)CC3)cc(C(O)c3ccccc3)n2)n1 (stereo not shown) [IN10987-039-P1]
+ (+ means >1 uM)	–	Cc1csc(-c2nc(NC3CCC(F)(F)CC3)cc(N3C[C@@H]4C[C@H]3CN4)n2)n1 [IN10987-050-P1]
+ (+ means >1 uM)	–	Cc1cc(C)n(-c2nc(NC3CCC(F)(F)CC3)cc(C(C)N3CCOCC3)n2)n1 (stereo not shown) [IN10987-055-P1, N-(4,4-difluorocyclohexyl)-2-(3,5-dimethyl-1H-pyrazol-1-yl)-6-(1-morpholinoethyl)pyrimidin-4-amine]
++ (++ means 200 nM-1000 nM)	–	Cc1csc(-c2nc(NC3CCC(F)(F)CC3)cc(N3CC4CC3CN4C)n2)n1 (stereo not shown) [IN10987-056-P1]
+ (+ means >1 uM)	–	Cc1cc(C)n(-c2nc(OC3CCC(F)(F)CC3)cc(N3CCOCC3)n2)n1 [IN10991-021-P1, 4-(6-((4,4-difluorocyclohexyl)oxy)-2-(3,5-dimethyl-1H-pyrazol-1-yl)pyrimidin-4-yl)morpholine]
++ (++ means 200 nM-1000 nM)	–	Cc1cc(C)n(-c2cc(N3CCOCC3)cc(NC3CCC(F)(F)CC3)n2)n1 [IN10991-044-P1, N-(4,4-difluorocyclohexyl)-6-(3,5-dimethyl-1H-pyrazol-1-yl)-4-morpholinopyridin-2-amine]
+ (+ means >1 uM)	–	Cc1cc(C)n(-c2cc(NC3CCC(F)(F)CC3)cc(N3CCOCC3)n2)n1 [IN10991-065-P1, N-(4,4-difluorocyclohexyl)-2-(3,5-dimethyl-1H-pyrazol-1-yl)-6-morpholinopyridin-4-amine]
+ (+ means >1 uM)	–	Cc1cc(C)n(-c2cc(NC3CCC(F)(F)CC3)nc(N3CCOCC3)c2)n1 [IN10991-067-P1, N-(4,4-difluorocyclohexyl)-4-(3,5-dimethyl-1H-pyrazol-1-yl)-6-morpholinopyridin-2-amine]
++ (++ means 200 nM-1000 nM)	–	Cc1ccn(-c2cc(CN3CCOC3=O)cc(NC3CCC(F)(F)CC3)n2)n1 [IN10991-091-P1]
+ (+ means >1 uM)	–	Fc1cnn(-c2nc(NC3CCC(F)(F)CC3)cc(N3CCOCC3)n2)c1 [IN11030-013-P1, N-(4,4-difluorocyclohexyl)-2-(4-fluoro-1H-pyrazol-1-yl)-6-morpholinopyrimidin-4-amine]
+ (+ means >1 uM)	–	FC1(F)CCC(Nc2cc(N3CCOCC3)nc(-c3ccc[nH]3)n2)CC1 [IN11030-023-P1, N-(4,4-difluorocyclohexyl)-6-morpholino-2-(1H-pyrrol-2-yl)pyrimidin-4-amine]
+++ (+++ means <200 nM)	–	Cc1csc(-c2nc(NC3CCC(F)(F)CC3)cc(N3CC(F)(F)OC(F)(F)C3)n2)n1 [IN11030-032-P1]
++ (++ means 200 nM-1000 nM)	–	Cc1cc(C)n(-c2nc(NC3CCC(F)(F)CC3)cc(N3CC(F)(F)OC(F)(F)C3)n2)n1 [IN11030-035-P1]
